Experimental data taken from US8148422B2, “Sulfonamides as TRPM8 modulators” (Janssen Pharmaceutica, NV, priority 2008, dated 2012).
pIC50: −log10 of the molar value. Like-named read-outs stand apart in the source and are kept apart here.

Key:
[1] = tested on: icilin-induced "wet-dog" shakes (WDS); experiment: Inhibition of icilin-induced "wet-dog" shakes in rats; assay type: in vivo; settings: HCl salt, 10 mpk PO, vehicle HPbCD; male Sprague Dawley rats; [1-(test compound WDS count/vehicle WDS count)]x100
Experimental: Male Sprague Dawley rats (220-450 g, Charles River Labs, n=6-9/treatment) were used to evaluate the ability of compounds selected from the group consisting of formula (I) and formula (II) to block icilin-induced “wet-dog” shakes (WDS). Compounds selected from the group consisting of formula (I) and formula (II) were administered in an appropriate vehicle, such as hydroxypropyl-β-cyclodextrin (HPβCD), methocellulose, 10% Solutol, or H2O, or the like, by the appropriate route, i.p. or p.o., 30-120 minutes before icilin. Icilin was administered in PEG-400 or 10% solutol/H2O, at 1.0 or 3.0 mg/kg, i.p. and spontaneous “wet-dog” shakes were counted 10-20 minutes post-icilin. Results are presented as a percent inhibition of shakes, which was calculated as [1−(test compound WDS count/vehicle WDS count)]×100.

[2] = target: T1, canine TRPM8 (Canis lupus familiaris, UniProt Q1A7N1); experiment: In vitro canine TRPM8 functional assay (Ca2+-sensitive fluorescent dye, FLIPR or FDSS, icilin challenge); assay type: cell-based; settings: for inhibition at 0.2 µM: 0.2 μM compound
T1 construct: expressed in transfected cells
T1 sequence (Q1A7N1 1-1104): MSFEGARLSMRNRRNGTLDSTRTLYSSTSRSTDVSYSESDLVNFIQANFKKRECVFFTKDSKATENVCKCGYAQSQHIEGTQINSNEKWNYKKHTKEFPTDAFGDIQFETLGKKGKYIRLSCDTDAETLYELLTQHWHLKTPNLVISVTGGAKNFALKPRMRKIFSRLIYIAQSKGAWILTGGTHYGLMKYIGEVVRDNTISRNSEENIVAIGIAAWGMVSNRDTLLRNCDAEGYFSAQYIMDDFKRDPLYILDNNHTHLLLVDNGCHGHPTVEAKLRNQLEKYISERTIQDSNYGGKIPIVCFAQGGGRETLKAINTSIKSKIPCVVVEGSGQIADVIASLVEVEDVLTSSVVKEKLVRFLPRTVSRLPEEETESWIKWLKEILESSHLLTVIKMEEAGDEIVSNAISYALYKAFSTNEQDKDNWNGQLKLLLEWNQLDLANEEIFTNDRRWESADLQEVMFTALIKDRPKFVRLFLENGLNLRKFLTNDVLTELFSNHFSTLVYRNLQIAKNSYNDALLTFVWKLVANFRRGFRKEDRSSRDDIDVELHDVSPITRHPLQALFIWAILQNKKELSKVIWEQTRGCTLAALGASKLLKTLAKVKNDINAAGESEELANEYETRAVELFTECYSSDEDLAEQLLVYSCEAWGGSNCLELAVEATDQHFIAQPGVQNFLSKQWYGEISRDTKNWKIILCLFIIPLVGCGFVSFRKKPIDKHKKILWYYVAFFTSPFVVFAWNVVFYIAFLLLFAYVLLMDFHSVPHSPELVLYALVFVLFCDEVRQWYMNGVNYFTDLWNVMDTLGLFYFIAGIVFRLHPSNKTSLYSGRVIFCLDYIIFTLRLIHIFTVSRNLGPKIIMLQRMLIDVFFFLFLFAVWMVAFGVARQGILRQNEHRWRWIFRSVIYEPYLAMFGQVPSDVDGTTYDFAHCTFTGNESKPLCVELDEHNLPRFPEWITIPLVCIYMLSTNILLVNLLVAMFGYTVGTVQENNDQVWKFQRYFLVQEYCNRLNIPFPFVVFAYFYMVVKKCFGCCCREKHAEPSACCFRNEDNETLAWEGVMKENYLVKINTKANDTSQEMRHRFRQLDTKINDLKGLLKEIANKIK
Method in brief: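 Cells (HEK293, stable canine TRPM8) are seeded 24 h before assay. They are then dye-loaded with Calcium 3 at 37 °C followed by room temperature. Compound is added and monitored for 5 min, after which icilin (~80% maximal response) is added.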

[3] = HEK293 cells stably expressing canine TRPM8, icilin challenge
[4] = HEK293 cells stably expressing canine TRPM8, icilin at approx. 80% maximal response, eight-point dose-response, single determinations unless otherwise noted, read-out: IC50

Row | Structure (SMILES) | % Inhibition (of wet-dog shakes) [1] [%] | inhibition at 0.2 µM [2, 3] [%] | pIC50 [2, 4] | pIC50 [2] | pIC50 ([2]; IC50, determination of HCl salt, HEK293 cells stably expressing canine TRPM8, icilin challenge) | inhibition at 0.2 µM ([2]; determination of HCl salt) [%]
1 | Cc1c(N(Cc2ccc(OC(F)(F)F)cc2)S(=O)(=O)CCN(C)Cc2ccccc2)sc2ccccc12 [Cpd 14, N-(3-Methylbenzo[b]thiophen-2-yl)-N-(4-trifluoromethoxy-benzyl)-2-(benzyl-methylamino)ethylsulfonamide] | 0 | 102 | 7.80 | – | – | –
2 | Cc1c(N(Cc2ccc(OC(F)(F)F)cc2)S(=O)(=O)CCN(CC(C)C)CC(C)C)sc2ccccc12 [Cpd 16, N-(3-Methylbenzo[b]thiophen-2-yl)-N-(4-trifluoromethoxy-benzyl)-2-(diisobutylamino)ethylsulfonamide] | 0 | 101 | 8.22 | – | – | –
3 | Cc1c(N(Cc2ccc(OC(F)(F)F)cc2)S(=O)(=O)CCN2CCC(c3ccccc3)CC2)sc2ccccc12 [Cpd 25, N-(3-Methylbenzo[b]thiophen-2-yl)-N-(4-trifluoromethoxy-benzyl)-2-(4-phenylpiperidin-1-yl)ethylsulfonamide] | 12.7 | 100 | – | 7.54 | 7.59 | 100
4 | Cc1c(N(CCC2CC2)S(=O)(=O)CCN(CC(C)C)CC(C)C)sc2ccccc12 [Cpd 74, N-(3-Methylbenzo[b]thiophen-2-yl)-N-(2-cyclopropyl-ethyl)-2-(diisobutylamino)ethylsulfonamide] | 26 | 100 | 7.77 | – | – | –
5 | Cc1c(N(CCCCC(F)(F)F)S(=O)(=O)CCN(CC(C)C)CC(C)C)sc2ccccc12 [Cpd 78, N-(3-Methylbenzo[b]thiophen-2-yl)-N-(5,5,5-trifluoro-n-pent-1-yl)-2-(di-iso-butylamino)ethylsulfonamide] | 3 | 100 | 7.74 | – | – | –
6 | Cc1c(N(Cc2ccc(F)c(F)c2)S(=O)(=O)CCN(CC(C)C)CC(C)C)sc2ccccc12 [Cpd 80, N-(3-Methylbenzo[b]thiophen-2-yl)-N-(3,4-difluoro-benzyl)-2-(di-iso-butylamino)ethylsulfonamide] | 0 | 100 | 7.59 | – | – | –
7 | CCCN(CCS(=O)(=O)N(CCC1CC1)c1sc2ccccc2c1C)CC(C)C [Cpd 95, N-(3-Methylbenzo[b]thiophen-2-yl)-N-(2-cyclopropyl-ethyl)-2-(n-propyl-isobutylamino)ethylsulfonamide] | – | 103 | 7.64 | – | – | –
8 | CC(C)CN(CCS(=O)(=O)N(Cc1ccc(OC(F)(F)F)cc1)c1ccc2ccccc2c1)CC(C)C [Cpd 96, N-(Naphth-2-yl)-N-(4-trifluoromethoxy-benzyl)-2-(diisobutylamino)-ethylsulfonamide] | – | 72 | 6.82 | – | – | –
